In patent US20220380375A1, “SUBSTITUTED AROMATIC FUSED RING DERIVATIVE AND COMPOSITION COMPRISING SAME, AND USE THEREOF” (Shenzhen TargetRx, Inc., priority 2019, published 2022):
pIC50: −log10 of the molar value. Marks after values point to notes of the source that are not given here. One block for each compound: values may come before it.

Key:
RET V804M = target: T1, RET V804M (Homo sapiens, UniProt P07949, V804M); experiment: Inhibition of kinase, RET V804M (HTRF KinEASE-TK); assay type: biochemical
T1 construct: purchased Signalchem R02—12GG
Experimental: (§1) Ret wt (Carna, Cat. No. 08-159-10 ug), RET (V804M), Active (Signalchem. Cat. No. R02—12GG), HTRF KinEASE-TK kit (Cisbio, Cat. No.62TK0PEC), CEP-32496 (MCE, Cat. No. HY-15200), ATP (Sigma. Cat. No. A7699), DMSO (Sigma, Cat. No. D8418-1L), DTT (Sigma, Cat. No. D0632), MgCl2(Sigma, Cat. No. M1028), 384-well plate (Labcyte, Cat. No. P-05525-BC).
(§2) Formulation of compound: The test compounds were dissolved in DMSO to obtain 10 mM stock solutions, which were then serially diluted 3-fold in DMSO to obtain 10 concentrations. At the time of addition, the compound was further diluted 10-fold with buffer.
(§3) In 5×kinase buffer A, Ret wt or RET V804M kinase was mixed with different concentrations of compounds prepared by pre-dilution for 10 minutes. Each concentration was tested in duplicate. The corresponding substrate and ATP were added, and reaction was performed at room temperature for 20 minutes (negative and positive controls were provided: the negative control was a blank control, and the positive control was CEP-32496 (Agerafenib)). After completion of the reaction, detection reagents (reagents in the HTRF KinEASE-TK kit) were added. After incubating for 30 minutes at room temperature, enzyme activity in the presence of various concentrations of the compounds of the present disclosure was determined by Envision microplate reader, and inhibitory activity of different concentrations of the compounds on enzyme activity was calculated. The inhibitory activity of different concentrations of the compounds on enzyme activity was fitted by Graphpad 5.0 software, and the IC50 value was calculated.

Ret wt = target: T2, Ret wt (Homo sapiens, UniProt P07949); experiment: Inhibition of kinase, Ret wt (HTRF KinEASE-TK); assay type: biochemical
T2 construct: purchased Carna 08-159-10 ug
Experimental: as §1, §2, §3

[1] = Safety assay (body weight, tolerability) in Ba/F3 KIF5B-RET^G810R cell line tumor model; assay type: in vivo
Experimental: (§4) Assay methods: 1) Ba/F3 KIF5B-RET and Ba/F3 KIF5B-RET^G810R cells were respectively resuscitated and Cultured in vitro, and 3×10^7 cells of each type were obtained. 2) 60 female NPSG mice aged 6-8 weeks were adaptively bred for 1 week and then weighed. 4) After inoculation, tumor volume and body weight were measured once a week. When average tumor volume reached about […], mice inoculated with each type of Ba/F3 cells were randomly divided into 7 groups according to tumor volume and body weight, with 3 mice in each group. The administration was started immediately after grouping. The date of start of administration was regarded as day 0. Informations on administration and grouping were shown in Tables 5 and 6.5) After the start of the administration, the body weight and tumor volume of mice were measured twice a week. 6) After the end of the administration, the assay was over.
(§5) Assay observation and data collection: After tumor inoculation, morbidity and death of animals were observed every working day. Daily observation included tumor growth and effects of drugs on laboratory animals, such as changes in activity, changes in feeding and drinking, weight loss, changes in appearance of hair and eye, death and other clinical symptoms. Formula for calculating tumor volume is: tumor volume (mm^3)=½×(a×b^2) (wherein a represents the long diameter and b represents the short diameter)

[2] = Safety assay (body weight, tolerability) in Ba/F3 KIF5B-RET cell line tumor model; assay type: in vivo
Experimental: as §4, §5

[3] = tested on: Ba/F3 KIF5B-RET^G810R cell line tumor model; experiment: Anti-tumor effect assay in Ba/F3 KIF5B-RET^G810R cell line tumor model (allograft); assay type: in vivo, female NPSG mice
Excerpt: (§6) The efficacy of compounds of the present disclosure in female NPSG mouse allograft models of two B-cell lymphoma cell lines Ba/F3 KIF5B-RET and Ba/F3 KIF5B-RET^G810R was verified.
(§7) Assay animals: Female NPSG mice, 6-8 weeks old (age of mice at the time of tumor cell inoculation), weighing 18-20 g, 60 mice, purchased from Shanghai Jihui Laboratory Animal Care Co., Ltd.
as §4, §5
(§8) Relative tumor inhibition rate TGI (%): TGI %=(1−T/C)×100%. T/C % is relative tumor proliferation rate, that is, a percentage value of relative tumor volume between treatment group and control group at a certain point in time. T and C are relative tumor volume (RTV, that is, the […] tumor volume at this time point and tumor volume at day 0) of treatment group and control group at a certain point in time, respectively.
(§9) Statistical analysis: For pairwise comparison, a T-Test analysis method was used, and for comparison of three or more groups, a One-Way ANOVA method was used. For comparison of potential synergistic effects, a Two-way ANOVA was used. SPSS 24.0 was used for all data. A p value less than 0.05 was considered a significant difference.

[4] = tested on: Ba/F3 KIF5B-RET cell line tumor model; experiment: Anti-tumor effect assay in Ba/F3 KIF5B-RET cell line tumor model (allograft); assay type: in vivo, female NPSG mice
Excerpt: as §6, §7, §4, §5, §8, §9

[5] = 10 mg/kg p.o. QD × 14, day 0 (baseline)

T1 sequence (P07949 29-1114 V804M): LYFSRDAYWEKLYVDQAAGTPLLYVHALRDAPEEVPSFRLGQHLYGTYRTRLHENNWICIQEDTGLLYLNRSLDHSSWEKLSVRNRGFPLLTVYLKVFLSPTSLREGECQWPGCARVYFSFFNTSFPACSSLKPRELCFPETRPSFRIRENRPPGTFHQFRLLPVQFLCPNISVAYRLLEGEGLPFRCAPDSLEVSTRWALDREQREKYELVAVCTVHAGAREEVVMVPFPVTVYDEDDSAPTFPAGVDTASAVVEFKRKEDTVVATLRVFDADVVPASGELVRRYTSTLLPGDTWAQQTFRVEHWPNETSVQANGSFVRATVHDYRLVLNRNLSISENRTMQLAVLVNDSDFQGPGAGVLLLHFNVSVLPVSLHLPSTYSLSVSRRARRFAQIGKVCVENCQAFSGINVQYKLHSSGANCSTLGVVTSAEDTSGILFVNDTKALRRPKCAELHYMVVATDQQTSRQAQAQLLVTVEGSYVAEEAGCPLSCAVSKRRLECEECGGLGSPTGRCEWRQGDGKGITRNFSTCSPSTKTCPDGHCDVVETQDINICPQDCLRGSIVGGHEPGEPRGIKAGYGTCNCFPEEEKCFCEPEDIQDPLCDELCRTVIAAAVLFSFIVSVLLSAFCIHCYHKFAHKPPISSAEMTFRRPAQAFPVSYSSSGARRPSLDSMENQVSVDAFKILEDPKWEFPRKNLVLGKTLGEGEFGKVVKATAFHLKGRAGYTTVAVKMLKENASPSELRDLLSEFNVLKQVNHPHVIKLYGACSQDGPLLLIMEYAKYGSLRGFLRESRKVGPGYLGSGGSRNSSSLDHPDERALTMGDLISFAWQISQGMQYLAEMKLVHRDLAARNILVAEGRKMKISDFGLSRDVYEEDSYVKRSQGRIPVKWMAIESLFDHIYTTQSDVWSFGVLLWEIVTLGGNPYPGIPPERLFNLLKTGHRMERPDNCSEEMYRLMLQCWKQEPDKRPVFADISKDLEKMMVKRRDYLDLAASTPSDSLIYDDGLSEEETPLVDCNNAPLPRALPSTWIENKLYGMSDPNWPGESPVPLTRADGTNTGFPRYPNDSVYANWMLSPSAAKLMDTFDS
T2 sequence (P07949 29-1114): as the sequence (P07949 29-1114 V804M) above, with M776V counted along it

- pIC50 (RET V804M): 8.00 to 9.00
- pIC50 (Ret wt): 8.00 to 9.00
Structure (SMILES): CC(C)n1nc(-c2ccc(CC(=O)Nc3cc(C(C)(C)C(F)(F)F)on3)cn2)c2c(N)ncnc21 [Compound T-7, 2-(6-(4-amino-1-isopropyl-1H-pyrazolo[3,4-d]pyrimidin-3-yl)pyridin-3-yl)-N-(5-(1,1,1-trifluoro-2-methylprop-2-yl)isoxazol-3-yl)acetamide]

Structure (SMILES): CC(C)n1nc(-c2ccc(CC(=O)Nc3cc(C(C)(C)C(F)(F)F)no3)cc2)c2c(N)ncnc21 [Compound T-8, 2-(4-(4-amino-1-isopropyl-1H-pyrazolo[3,4-d]pyrimidin-3-yl)phenyl)-N-(3-(1,1,1-trifluoro-2-methylprop-2-yl)isoxazol-5-yl)acetamide]
- Number of animals at the beginning/end of assay ([1]; 25 mg/kg p.o. QD × 13): 3/3
- Average weight g (x ± S), Day 0 of administration ([1]; 25 mg/kg p.o. QD × 13, day 0 (baseline)): 19.6 ± 0.32 g
- Average weight g (x ± S), Day 13 of administration ([1]; 25 mg/kg p.o. QD × 13, day 13): 22.5 ± 0.73 g
- Weight change rate (%), Day 13 of administration ([1]; 25 mg/kg p.o. QD × 13, day 13): 14.40%
- tolerability (weight loss, drug withdrawal, drug toxicity) ([1]; during the treatment): well tolerated
- Number of animals at the beginning/end of assay ([2]; 10 mg/kg p.o. QD × 14): 3/3
- Average weight g (x ± S), Day 0 of administration [2, 5]: 20.5 ± 1.07 g
- Average weight g (x ± S), Day 14 of administration ([2]; 10 mg/kg p.o. QD × 14, day 14): 21.7 ± 0.82 g
- Weight change rate (%), Day 14 of administration ([2]; 10 mg/kg p.o. QD × 14, day 14): 6.0%
- tolerability (weight loss, drug withdrawal, drug toxicity) ([2]; during the treatment): well tolerated
- Tumor volume (x ± S), Day 0 of administration ([3]; Ba/F3 KIF5B-RET^G810R model, 25 mg/kg p.o. QD × 13, day 0 (baseline)): 96.7 ± 6.74 mm^3
- Tumor volume (x ± S), Day 13 of administration ([3]; Ba/F3 KIF5B-RET^G810R model, 25 mg/kg p.o. QD × 13, day 13): 90.7 ± 8.41 mm^3
- TGI (%), Day 13 of administration ([3]; Ba/F3 KIF5B-RET^G810R model, 25 mg/kg p.o. QD × 13, day 13, TGI more than 100% = decrease in tumor volume): 101.6%#
- relative tumor inhibition rate TGI (%) ([3]; day 13 of administration, AD80 group 25 mg/kg): 101.6%
- Tumor volume (x ± S), Day 0 of administration [4, 5]: 101.3 ± 4.33 mm^3
- TGI (%), Day 14 of administration ([4]; 10 mg/kg p.o. QD × 14, day 14): 95.4%
- Tumor volume (x ± S), Day 14 of administration ([4]; 10 mg/kg p.o. QD × 14, day 14): 163.7 ± 19.74 mm^3

- pIC50 (RET V804M): 8.00 to 9.00
- pIC50 (Ret wt): 8.00 to 9.00
Structure (SMILES): [2H]C([2H])([2H])C(n1nc(-c2ccc(CC(=O)Nc3cc(C(C)(C)C(F)(F)F)no3)cc2)c2c(N)ncnc21)C([2H])([2H])[2H] [Compound T-11, 2-(4-(4-amino-1-(propan-2-yl-1,1,1,3,3,3-d6)-1H-pyrazolo[3,4-d]pyrimidin-3-yl)phenyl)-N-(3-(1,1,1-trifluoro-2-methylpropan-2-yl)isoxazol-5-yl)acetamide]

- pIC50 (RET V804M): 8.00 to 9.00
- pIC50 (Ret wt): 7.30 to 8.00
Structure (SMILES): [2H]C([2H])([2H])C(n1cc(-c2ccc(CC(=O)Nc3cc(C(C)(C)C(F)(F)F)on3)cc2)c2c(N)ncnc21)C([2H])([2H])[2H] [Compound T-12, 2-(4-(4-amino-7-(propen-2-yl-1,1,1,3,3,d6)-7H-pyrrolo[2,3-d]pyrimidin-5-yl)phenyl)-N-(5-(1,1,1-trifluo-2-methylpropan-2-yl)isoxazol-3-yl)acetamide]
